# Measured values taken from patent publication US20260151403A1, “NEK7 DEGRADERS AND METHODS OF USE THEREOF” (Captor Therapeutics S.A., priority 2022, published 2026).
# Tests used:
# NEK7-HiBiT protein = NEK7-HiBiT protein (Homo sapiens, UniProt Q8TDX7); assay: NEK7-HiBiT degradation assay (Nano-Glo HiBiT Lytic Assay) in HEK293 NEK7-HiBiT cells; format: cell-based; settings: 24 h, conc. 0.1, 1 and 10 μM tested, concentration of the table values not stated, mean of 3 technical replicates
# Procedure, shortened: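 HEK293 cells with CRISPR knock-in N-terminal HiBiT-tagged NEK7 exposed to compound for 24 h at 37 °C, 5% CO2. Residual NEK7-HiBiT was read as Nano-Glo HiBiT lytic luminescence and expressed as % of DMSO control across triplicates; compounds run at 0.1, 1 and 10 μM.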
# [1] = target: T1, [NEK7]-[compound of formula (I)]-[CRBN/DDB1] complex (Homo sapiens, UniProt Q8TDX7+Q96SW2); assay: HTRF ternary complex assay; format: binding; settings: dose-response, 180 min at 25° C.; for EC50: read-out: HTRF ternary complex Average pEC50 by molecule (converted)
# Procedure, shortened: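 Mix of 24 nM NEK7, 52.8 nM 6×His-CRBN/Strep-DDB1, 3 nM streptavidin-Eu cryptate and 6.67 nM anti-6×His-d2 in PPI Europium detection buffer with 1 mM DTT, dose-response compound, 0.5% DMSO, 180 min at 25° C. TR-FRET (665/620) read, normalized to DMSO background, Hill-slope fit gave EC50/pEC50.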
# [2] = target: T1, [NEK7]-[compound of formula (I)]-[CRBN/DDB1] complex; assay: AlphaLISA dose response ternary complex formation assay; format: binding; settings: 1 μM compound, normalized to maximum signal of Compound 2 (positive control) and DMSO background; for activation at 1 µM: read-out: Normalized AlphaLISA ternary complex average signal at 1 μM molecule
# Procedure, shortened: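 Biotinylated NEK7 (200 nM) on streptavidin donor beads and 6×His-CRBN/Strep-DDB1 (200 nM) on anti-His acceptor beads, each at 40 μg/ml and preincubated 30 min, then mixed and added to compound in HBS pH 7.4, 0.1% Tween-20, 1 mM DTT, 2% DMSO. After 30 min at 25 °C, AlphaLISA signal was read (ex 680/em 615 nm) and normalised to DMSO background and maximal Compound 2 signal.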
# Chain of NEK7-HiBiT protein (Q8TDX7 whole entry): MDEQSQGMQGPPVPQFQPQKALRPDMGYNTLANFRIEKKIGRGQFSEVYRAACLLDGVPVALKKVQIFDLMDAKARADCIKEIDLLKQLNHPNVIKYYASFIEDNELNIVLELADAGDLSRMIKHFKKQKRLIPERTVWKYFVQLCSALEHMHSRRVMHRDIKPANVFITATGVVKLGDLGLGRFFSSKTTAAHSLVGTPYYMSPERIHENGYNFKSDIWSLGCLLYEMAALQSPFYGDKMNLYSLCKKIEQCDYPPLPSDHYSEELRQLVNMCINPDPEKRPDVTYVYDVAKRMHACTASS
# Chain of NEK7-HiBiT protein (Q96SW2 whole entry, further chain): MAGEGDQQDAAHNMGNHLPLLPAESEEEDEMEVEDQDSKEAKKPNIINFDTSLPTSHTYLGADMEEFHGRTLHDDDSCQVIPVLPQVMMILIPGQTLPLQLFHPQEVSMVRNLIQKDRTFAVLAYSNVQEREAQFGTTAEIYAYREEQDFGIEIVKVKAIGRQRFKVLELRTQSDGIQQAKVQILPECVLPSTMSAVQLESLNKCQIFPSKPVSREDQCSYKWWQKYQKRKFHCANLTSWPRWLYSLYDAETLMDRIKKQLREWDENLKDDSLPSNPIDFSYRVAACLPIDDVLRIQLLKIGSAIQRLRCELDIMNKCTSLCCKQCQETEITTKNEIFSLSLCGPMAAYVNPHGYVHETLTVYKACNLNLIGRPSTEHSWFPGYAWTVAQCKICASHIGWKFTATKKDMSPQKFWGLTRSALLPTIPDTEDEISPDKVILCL
# Chain of NEK7-HiBiT protein (Q16531 whole entry partner): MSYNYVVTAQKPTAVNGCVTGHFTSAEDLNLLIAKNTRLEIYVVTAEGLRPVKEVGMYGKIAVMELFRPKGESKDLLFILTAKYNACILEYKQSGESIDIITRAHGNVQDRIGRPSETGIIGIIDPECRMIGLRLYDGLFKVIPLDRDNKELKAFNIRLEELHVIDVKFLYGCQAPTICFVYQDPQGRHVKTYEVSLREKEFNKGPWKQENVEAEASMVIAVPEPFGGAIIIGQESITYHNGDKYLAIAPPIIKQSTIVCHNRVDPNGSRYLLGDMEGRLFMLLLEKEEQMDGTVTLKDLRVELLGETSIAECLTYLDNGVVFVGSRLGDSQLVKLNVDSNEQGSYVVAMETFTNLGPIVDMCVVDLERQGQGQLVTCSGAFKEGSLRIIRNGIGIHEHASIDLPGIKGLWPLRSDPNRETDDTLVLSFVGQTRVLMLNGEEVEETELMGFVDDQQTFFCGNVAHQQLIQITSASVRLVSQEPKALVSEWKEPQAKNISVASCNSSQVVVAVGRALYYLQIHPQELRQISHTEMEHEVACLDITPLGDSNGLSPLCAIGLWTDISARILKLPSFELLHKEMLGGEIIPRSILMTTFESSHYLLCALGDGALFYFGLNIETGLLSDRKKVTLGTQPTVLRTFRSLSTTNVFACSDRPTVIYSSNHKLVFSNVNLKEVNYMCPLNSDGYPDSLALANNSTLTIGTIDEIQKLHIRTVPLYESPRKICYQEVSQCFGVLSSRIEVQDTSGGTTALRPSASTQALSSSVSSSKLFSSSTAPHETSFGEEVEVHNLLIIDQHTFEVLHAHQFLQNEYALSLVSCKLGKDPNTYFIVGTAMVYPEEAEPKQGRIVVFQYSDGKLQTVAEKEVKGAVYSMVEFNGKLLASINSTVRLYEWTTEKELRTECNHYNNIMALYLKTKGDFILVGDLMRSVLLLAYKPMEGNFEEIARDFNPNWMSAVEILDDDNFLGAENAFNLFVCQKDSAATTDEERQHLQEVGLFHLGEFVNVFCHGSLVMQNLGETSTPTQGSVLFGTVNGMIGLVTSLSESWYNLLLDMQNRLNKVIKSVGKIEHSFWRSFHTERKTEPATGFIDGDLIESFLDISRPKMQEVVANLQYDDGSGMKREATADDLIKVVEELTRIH
# T1 sequence (Q8TDX7 whole entry): as the sequence (Q8TDX7 whole entry) above
# T1 sequence (Q96SW2 whole entry): as the sequence (Q96SW2 whole entry, further chain) above
# T1 sequence (Q16531 whole entry partner): as the sequence (Q16531 whole entry partner) above
EC50 [1],activation at 1 µM [2],Compound,Levels of NEK7-HiBiT Protein (as a % of DMSO control) (NEK7-HiBiT protein),HTRF ternary complex Average pEC50 by molecule [1],Normalized AlphaLISA ternary complex average signal at 1 μM molecule [2]
,,"3-(5-((2R,6R)-6-butyltetrahydro-2H-pyran-2-yl)-1-oxoisoindolin-2-yl)piperidine-2,6-dione and 3-(5-((2S,6S)-6-butyltetrahydro-2H-pyran-2-yl)-1-oxoisoindolin-2-yl)piperidine-2,6-dione [69 Isomer 2]",B (Levels of NEK7-HiBiT Protein > 25% and ≤50%),++++ (7.0 > pEC50 > 6.5),B (Normalized activity > 20% and <80%)
> 3.16 µM,< 10%,"O=C1CCC(N2Cc3c(csc3C3CCCCO3)C2=O)C(=O)N1 (stereo not drawn) [Compound 71, 3-(4-oxo-1-(tetrahydro-2H-pyran-2-yl)-4H-thieno[3,4-c]pyrrol-5 (6H)-yl)piperidine-2,6-dione]",D (Levels of NEK7-HiBiT Protein ≥ 75%),,
> 3.16 µM,< 10%,"O=C1CCC(N2Cc3cc(C4CCCCO4)sc3C2=O)C(=O)N1 (stereo not drawn) [Compound 73, 3-(6-oxo-2-(tetrahydro-2H-pyran-2-yl)-4,6-dihydro-5H-thieno[2,3-c]pyrrol-5-yl)piperidine-2,6-dione]",D (Levels of NEK7-HiBiT Protein ≥ 75%),,
0.1 to 0.316 µM,> 80%,"O=C1CCC(N2Cc3cc(C4CCC(Cc5ccccc5)CN4)ccc3C2=O)C(=O)N1 (single isomer, unassigned) [35 Isomer 1, 3-(5-(5-benzylpiperidin-2-yl)-1-oxoisoindolin-2-yl)piperidine-2,6-dione]",B (Levels of NEK7-HiBiT Protein > 25% and ≤50%),,
> 3.16 µM,< 10%,"O=C1CCCC(N2Cc3cc(C4CCCCN4)ccc3C2=O)C(=O)N1 (stereo not drawn) [Compound 65, 3-(1-oxo-5-(piperidin-2-yl)isoindolin-2-yl)azepane-2,7-dione]",C (Levels of NEK7-HiBiT Protein > 50% and <75%),,
0.1 to 0.316 µM,> 80%,"CCCCC1CCC(c2ccc3c(c2)CN(C2CCC(=O)NC2=O)C3=O)NC1 (mixture of isomers) [Compound 37, 3-(5-(5-butylpiperidin-2-yl)-1-oxoisoindolin-2-yl)piperidine-2,6-dione]",B (Levels of NEK7-HiBiT Protein > 25% and ≤50%),,
> 3.16 µM,< 10%,"O=C1CCC(N2Cc3c(csc3-c3ccccn3)C2=O)C(=O)N1 (stereo not drawn) [31(2), 3-(4-oxo-1-(pyridin-2-yl)-4H-thieno[3,4-c]pyrrol-5 (6H)-yl)piperidine-2,6-dione]",D (Levels of NEK7-HiBiT Protein ≥ 75%),,
1 to 3.16 µM,,"CCCCC1CCC(c2ccc3c(c2)CN(C2CCC(=O)NC2=O)C3=O)OC1 (single isomer, unassigned) [70 Isomer 2, 3-(5-(5-butyltetrahydro-2H-pyran-2-yl)-1-oxoisoindolin-2-yl)piperidine-2,6-dione]",B (Levels of NEK7-HiBiT Protein > 25% and ≤50%),,A (Normalized activity > 80%)
0.316 to 1 µM,> 80%,"O=C1CCC(N2Cc3cc([C@H]4CCCCN4)ccc3C2=O)C(=O)N1 (stereo partly drawn) [Compound 9, 3-(1-oxo-5-((R)-piperidin-2-yl)isoindolin-2-yl)piperidine-2,6-dione]",A (Levels of NEK7-HiBiT Protein ≤ 25%),,

Compound,EC50 [1],activation at 1 µM [2],Levels of NEK7-HiBiT Protein (as a % of DMSO control) (NEK7-HiBiT protein),HTRF ternary complex Average pEC50 by molecule [1],Normalized AlphaLISA ternary complex average signal at 1 μM molecule [2]
"O=C1CCC(N2Cc3cc(-c4cc(C(F)(F)F)ccn4)ccc3C2=O)C(=O)N1 (stereo not drawn) [26(2), 3-(1-oxo-5-(4-(trifluoromethyl)pyridin-2-yl)isoindolin-2-yl)piperidine-2,6-dione]",0.316 to 1 µM,20 to 80%,C (Levels of NEK7-HiBiT Protein > 50% and <75%),,
